From patent US20230146455A1, “TREATMENT OF INFLAMMATORY DISEASES WITH PEPTIDES AND PHARMACEUTICAL COMPOSITIONS” (Yuyu Pharma, Inc., priority 2020, published 2023)
Where “and” joins values, the source holds several entries; their conditions need not be identical. Equal values may be shown once. Where a SMILES comes first, the peptide text is derived from it. [ ]: non-standard residue; d: D form. Hyp = O=C(O)[C@@H]1C[C@@H](O)CN1

Legend:
[1] = test system: TIMP-1; assay: Example 9 Luminex, LPS hPBMCs: TIMP-1; format: cell-based, human; conditions: PBMC + LPS(5 ug/ml)
Protocol: (§1) Treatment Human PBMCs were pretreated with YY-101, YDE-011 and YDE-043 or reference compound; Xiidra® at various concentration (ranging from 1 nM to 100 uM) for 2 h before stimulation. An equal volume of 0.5% DMSO was used as a vehicle control. Then, the cells were treated with LPS at 5 ug/ml. The supernatants from treated cells were harvested at 24 h and placed in a 96 well for Luminex cytokine & chemokine profiling using a Luminex 200 multiplex assay (Luminex; R&D system, USA).
(§2) The main study arm with triplicate wells per group in a 24-well plate: • 1. Blank • 2. PBMC: 0.5% DMSO • 3. PBMC+LPS (5 ug/ml) • 4. PBMC+YY-101 100 uM • 5. PBMC+YY-101 10 uM • 6. PBMC+YY-101 1 uM • 7. PBMC+YY-101 0.1 uM • 8. PBMC+YY-101 0.01 uM • 9. PBMC+LPS (5 ug/ml)+Xiidra®100 uM • 10. PBMC+LPS (5 ug/ml)+Xiidra® 10 uM • 11. PBMC+LPS (5 ug/ml)+Xiidra® 1 uM • 12. PBMC+LPS (5 ug/ml)+Xiidra®0.1 uM • 13. PBMC+LPS (5 ug/ml)+Xiidra®0.01 uM • 14. PBMC+LPS (5 ug/ml)+Xiidra®0.001 uM • 15. PBMC+LPS (5 ug/ml)+YY-101 100 uM • 16. PBMC+LPS (5 ug/ml)+YY-101 10 uM • 17. PBMC+LPS (5 ug/ml)+YY-101 1 uM • 18. PBMC+LPS (5 ug/ml)+YY-101 0.1 uM • 19. PBMC+LPS (5 ug/ml)+YY-101 0.01 uM • 20. PBMC+LPS (5 ug/ml)+YY-101 0.001 uM • 21. PBMC+LPS (5 ug/ml)+YDE-011 100 uM • 22. PBMC+LPS (5 ug/ml)+YDE-011 10 uM • 23. PBMC+LPS (5 ug/ml)+YDE-011 1 uM • 24. PBMC+LPS (5 ug/ml)+YDE-011 0.1 uM • 25. PBMC+LPS (5 ug/ml)+YDE-011 0.01 uM • 26. PBMC+LPS (5 ug/ml)+YDE-011 0.001 uM • 27. PBMC+LPS (5 ug/ml)+YDE-043 100 uM • 28. PBMC+LPS (5 ug/ml)+YDE-043 10 uM • 29. PBMC+LPS (5 ug/ml)+YDE-043 1 uM • 30. PBMC+LPS (5 ug/ml)+YDE-043 0.1 uM • 31. PBMC+LPS (5 ug/ml)+YDE-043 0.01 uM • 32. PBMC+LPS (5 ug/ml)+YDE-043 0.001 uM
(§3) Multiplex assay was used to measure 30 cytokines and chemokines. The 1:2, 1:10 and 1:200 diluted cell supernatant and serial dilution of the standard were dispensed into a 96 well plate at 50 ul/well. Then, the pre-mixed cocktail of antibody-coated magnetic beads was dispensed at 50 ul/well and incubated at room temperature for 2 h in a horizontal orbital microplate shaker at 800±500 rpm. The beads were washed using a magnetic device to prevent loss. The biotin-antibody was dispensed in 50 ul of each well and incubated at room temperature for 1 h in a shaker at 800±500 rpm. After washing, streptavidin-PE was added at 50 ul/well and incubated at room temperature for 30 min in a shaker under the same conditions. Finally, after washing, wash buffer (100 ul/well) was added to the plate and incubated in a shaker for 2 min. The Luminex™ 200 setting were set according to the manufacturer's protocol. The data was calculated with a standard five-parameter logistic nonlinear regression analysis of the data (xPonent software 4.2, USA). The levels of cytokine/chemokine are normalized to the live cell counts (1×10^5 cells/mL) and presented as concentrations per mL (pg/mL or ng/mL).

[2] = test system: CCL3/MIP-1 alpha; assay: Example 9 Luminex, LPS hPBMCs: CCL3/MIP-1 alpha; format: cell-based, human
Protocol: as §1, §2, §3

[3] = test article 0.001 uM, single replicates
[4] = test article 0.01 uM, single replicates
[5] = test article 0.1 uM, single replicates
[6] = test article 1 uM, single replicates
[7] = test article 10 uM, single replicates
[8] = test article 100 uM, single replicates
[9] = PBMC + LPS(5 ug/ml) + test article 0.001 uM, Mean
[10] = PBMC + LPS(5 ug/ml) + test article 0.001 uM, individual replicates
[11] = PBMC + LPS(5 ug/ml) + test article 0.01 uM, Mean
[12] = PBMC + LPS(5 ug/ml) + test article 0.01 uM, individual replicates
[13] = PBMC + LPS(5 ug/ml) + test article 0.1 uM, Mean
[14] = PBMC + LPS(5 ug/ml) + test article 0.1 uM, individual replicates
[15] = PBMC + LPS(5 ug/ml) + test article 1 uM, Mean
[16] = PBMC + LPS(5 ug/ml) + test article 1 uM, individual replicates
[17] = PBMC + LPS(5 ug/ml) + test article 10 uM, Mean
[18] = PBMC + LPS(5 ug/ml) + test article 10 uM, individual replicates
[19] = PBMC + LPS(5 ug/ml) + test article 100 uM, Mean
[20] = PBMC + LPS(5 ug/ml) + test article 100 uM, individual replicates

`CC(C)C[C@H](NC(=O)[C@H](CCC(N)=O)NC(=O)CNC(=O)[C@@H]1C[C@@H](O)CN1)C(=O)NCC(=O)O` [YDE-043] (H-[Hyp]GQLG-OH; N-terminus and C-terminus assumed) was tested, and the “TIMP-1 Concentration” value ([1]; test article 0.001 uM, Mean) was 2001.5 pg/mL, the “TIMP-1 MFI” value ([1]; test article 0.001 uM, Mean) was 1096.8 and the TIMP-1 conc/live cell ([1]; test article 0.001 uM, Mean) was 406.7 pg/10^5. For the same molecule, the “TIMP-1 Concentration” value [1, 3] was 1887.3 pg/mL and 2046.6 pg/mL and 2070.5 pg/mL, the “TIMP-1 MFI” value [1, 3] was 1014.0 and 1129.5 and 1147.0 and the TIMP-1 conc/live cell [1, 3] was 428.9 pg/10^5 and 341.1 pg/10^5 and 450.1 pg/10^5. For the same molecule, the “TIMP-1 Concentration” value ([1]; test article 0.01 uM, Mean) was 1986.7 pg/mL, the “TIMP-1 MFI” value ([1]; test article 0.01 uM, Mean) was 1085.8 and the TIMP-1 conc/live cell ([1]; test article 0.01 uM, Mean) was 380.0 pg/10^5. For the same molecule, the “TIMP-1 Concentration” value [1, 4] was 2007.5 pg/mL and 1991.7 pg/mL and 1960.7 pg/mL, the “TIMP-1 MFI” value [1, 4] was 1101.0 and 1089.5 and 1067.0 and the TIMP-1 conc/live cell [1, 4] was 446.1 pg/10^5 and 301.8 pg/10^5 and 392.1 pg/10^5. The “TIMP-1 Concentration” value ([1]; test article 0.1 uM, Mean) was 1829.5 pg/mL, the “TIMP-1 MFI” value ([1]; test article 0.1 uM, Mean) was 972.8 and the TIMP-1 conc/live cell ([1]; test article 0.1 uM, Mean) was 339.9 pg/10^5. For the same molecule, the “TIMP-1 Concentration” value [1, 5] was 1850.4 pg/mL and 1718.3 pg/mL and 1919.9 pg/mL, the “TIMP-1 MFI” value [1, 5] was 987.5 and 893.5 and 1037.5 and the TIMP-1 conc/live cell [1, 5] was 370.1 pg/10^5 and 306.8 pg/10^5 and 342.8 pg/10^5. The “TIMP-1 Concentration” value ([1]; test article 1 uM, Mean) was 1838.3 pg/mL, the “TIMP-1 MFI” value ([1]; test article 1 uM, Mean) was 979.0 and the TIMP-1 conc/live cell ([1]; test article 1 uM, Mean) was 348.3 pg/10^5. For the same molecule, the “TIMP-1 Concentration” value [1, 6] was 1928.2 pg/mL and 1809.9 pg/mL and 1776.9 pg/mL, the “TIMP-1 MFI” value [1, 6] was 1043.5 and 958.5 and 935.0 and the TIMP-1 conc/live cell [1, 6] was 332.5 pg/10^5 and 377.1 pg/10^5 and 335.3 pg/10^5. The “TIMP-1 Concentration” value ([1]; test article 10 uM, Mean) was 1844.9 pg/mL, the “TIMP-1 MFI” value ([1]; test article 10 uM, Mean) was 983.7 and the TIMP-1 conc/live cell ([1]; test article 10 uM, Mean) was 342.1 pg/10^5. For the same molecule, the “TIMP-1 Concentration” value [1, 7] was 1853.9 pg/mL and 1912.3 pg/mL and 1768.4 pg/mL, the “TIMP-1 MFI” value [1, 7] was 990.0 and 1032.0 and 929.0 and the TIMP-1 conc/live cell [1, 7] was 356.5 pg/10^5 and 354.1 pg/10^5 and 315.8 pg/10^5. The “TIMP-1 Concentration” value ([1]; test article 100 uM, Mean) was 2156.3 pg/mL, the “TIMP-1 MFI” value ([1]; test article 100 uM, Mean) was 1210.3 and the TIMP-1 conc/live cell ([1]; test article 100 uM, Mean) was 342.6 pg/10^5. The “TIMP-1 Concentration” value [1, 8] was 2247.5 pg/mL and 2065.1 pg/mL, the “TIMP-1 MFI” value [1, 8] was 1277.5 and 1143.0 and the TIMP-1 conc/live cell [1, 8] was 362.5 pg/10^5 and 322.7 pg/10^5. The Concentration [2, 9] was 7935.0 pg/mL, the conc/live cell [2, 9] was 1611.4 pg/10^5 and the Concentration [2, 10] was 7637.9 pg/mL and 8204.6 pg/mL and 7962.5 pg/mL. For the same molecule, the conc/live cell [2, 10] was 1735.9 pg/10^5 and 1367.4 pg/10^5 and 1731.0 pg/10^5, the Concentration [2, 11] was 7883.4 pg/mL and the conc/live cell [2, 11] was 1505.4 pg/10^5. For the same molecule, the Concentration [2, 12] was 7796.2 pg/mL and 7985.9 pg/mL and 7868.0 pg/mL, the conc/live cell [2, 12] was 1732.5 pg/10^5 and 1210.0 pg/10^5 and 1573.6 pg/10^5 and the Concentration [2, 13] was 7645.0 pg/mL. For the same molecule, the conc/live cell [2, 13] was 1418.9 pg/10^5, the Concentration [2, 14] was 7513.4 pg/mL and 7625.5 pg/mL and 7796.2 pg/mL and the conc/live cell [2, 14] was 1502.7 pg/10^5 and 1361.7 pg/10^5 and 1392.2 pg/10^5. The Concentration [2, 15] was 7636.6 pg/mL, the conc/live cell [2, 15] was 1442.9 pg/10^5 and the Concentration [2, 16] was 7962.5 pg/mL and 6891.7 pg/mL and 8055.7 pg/mL. For the same molecule, the conc/live cell [2, 16] was 1372.8 pg/10^5 and 1435.8 pg/10^5 and 1520.0 pg/10^5, the Concentration [2, 17] was 7606.3 pg/mL and the conc/live cell [2, 17] was 1409.0 pg/10^5. For the same molecule, the Concentration [2, 18] was 7500.8 pg/mL and 7450.2 pg/mL and 7868.0 pg/mL, the conc/live cell [2, 18] was 1442.5 pg/10^5 and 1379.7 pg/10^5 and 1405.0 pg/10^5 and the Concentration [2, 19] was 7769.2 pg/mL. The conc/live cell [2, 19] was 1234.0 pg/10^5, the Concentration [2, 20] was 7962.5 pg/mL and 7575.9 pg/mL and the conc/live cell [2, 20] was 1284.3 pg/10^5 and 1183.7 pg/10^5.
